# Experimental data: the supplement of paper PMC10307832
# What was measured:
# Assay in all cases: relative viability (nuclei count vs DMSO), 5 days (fraction); higher = more cells survive
# [1] = compound: COC1=CC=C(C=C1)CN2C=CC3=C2C=C(C=C3)C(=O)NO + COc1cccc2cc(-c3nc([C@H]4CC[C@H](C(=O)O)CC4)n4ncnc(N)c34)[nH]c12 [OSI-027] (partner 0.5 µM)
# Summary of the method: (§1)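 Nuclei were stained with Hoechst during a one-step fixation (final 0.05% Triton X-100, 1% formaldehyde, 1 ug/ml Hoechst) carried out 5 days after dosing, then counted on 4× images. The cells, lung cancer lines in 1536-well plates, had been dosed by pin tool the day after seeding with one drug alone or a fixed anchor-drug dose plus five library-drug doses (not always all listed) in √10 steps. Relative viability is the nuclei count in treated wells divided by that in vehicle wells, and each value is the median of duplicate plates.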
# [2] = compound: COC1=CC=C(C=C1)CN2C=CC3=C2C=C(C=C3)C(=O)NO + Cc1cc(Nc2cc(N3CCN(C)CC3)nc(Sc3ccc(NC(=O)C4CC4)cc3)n2)n[nH]1 [Tozasertib] (partner 0.1 µM)
# Summary of the method: as §1
# [3] = compound: COC1=CC=C(C=C1)CN2C=CC3=C2C=C(C=C3)C(=O)NO + NC(=O)Nc1cc(-c2cccc(F)c2)sc1C(=O)N[C@H]1CCCNC1 [AZD7762] (partner 0.2 µM)
# Summary of the method: as §1
# Veliparib + Alpelisib = compound: C[C@]1(c2nc3c(C(N)=O)cccc3[nH]2)CCCN1 [Veliparib] + Cc1nc(NC(=O)N2CCC[C@H]2C(N)=O)sc1-c1ccnc(C(C)(C)C(F)(F)F)c1 [Alpelisib] (partner 2 µM)
# Summary of the method: as §1
Cell Line,relative viability ([1]; first compound 0.08 µM),relative viability ([1]; first compound 0.253 µM),relative viability ([1]; first compound 0.8 µM),relative viability ([1]; first compound 2.53 µM),relative viability ([1]; first compound 8 µM),relative viability ([2]; first compound 0.08 µM),relative viability ([2]; first compound 0.253 µM),relative viability ([2]; first compound 0.8 µM),relative viability ([2]; first compound 2.53 µM),relative viability ([2]; first compound 8 µM),relative viability ([3]; first compound 0.08 µM),relative viability ([3]; first compound 0.253 µM),relative viability ([3]; first compound 0.8 µM),relative viability ([3]; first compound 2.53 µM),relative viability ([3]; first compound 8 µM),relative viability (Veliparib + Alpelisib; first compound 0.06325 µM),relative viability (Veliparib + Alpelisib; first compound 0.2 µM),relative viability (Veliparib + Alpelisib; first compound 0.6325 µM),relative viability (Veliparib + Alpelisib; first compound 2 µM),relative viability (Veliparib + Alpelisib; first compound 0.02 µM)
NCI-H1648,0.246,0.245,0.246,0.262,0.246,0.415,0.573,0.479,0.399,0.473,0.523,0.584,0.723,0.447,0.525,–,–,–,–,–
NCI-H358,–,0.861,0.722,0.739,0.67,–,0.0969,0.108,0.131,0.0806,–,0.54,0.443,0.557,0.354,0.763,0.953,0.775,1.01,–
IA-LM,–,–,–,–,–,–,–,–,–,–,–,–,–,–,–,0.764,0.684,0.503,0.968,0.796
201T,0.869,0.827,0.644,–,0.71,0.677,0.976,0.998,0.877,0.943,0.561,0.676,0.528,0.642,0.586,1.02,1.02,1.01,0.973,1.02
LOU-NH91,0.761,0.699,0.729,0.749,0.709,0.407,0.693,0.66,0.64,0.587,–,0.749,0.756,0.748,0.705,0.72,0.76,0.706,0.748,0.698
ChaGo-K-1,–,0.623,0.675,0.504,0.378,–,0.249,0.211,0.214,0.234,–,0.861,0.881,0.766,0.762,–,–,–,–,–
NCI-H441,0.715,0.709,0.644,0.621,0.459,0.679,0.604,0.561,0.768,0.493,1.08,1.3,1.19,1.2,0.887,0.886,0.716,0.737,0.671,0.735
ABC-1,–,0.57,0.484,0.488,0.393,–,0.221,0.183,0.162,0.209,–,0.692,0.871,0.796,0.756,0.809,1.1,1.05,0.894,–
NCI-H661,–,0.78,0.727,0.658,0.625,–,0.356,0.369,0.328,0.329,–,–,–,–,–,0.581,0.653,0.701,0.699,0.361
BEN,0.27,0.296,0.288,0.318,0.291,0.442,0.472,0.437,0.495,0.445,0.628,0.507,0.628,0.594,0.549,0.982,1.2,0.992,1.05,0.925
UMC-11,–,0.469,0.554,0.463,0.477,–,0.204,0.215,0.215,0.223,–,–,–,–,–,0.941,1.14,0.947,0.972,1.01
NCI-H2023,0.369,0.406,0.418,0.372,0.344,0.296,0.314,0.415,0.389,0.396,–,–,–,–,–,0.621,0.569,0.502,0.669,0.629
NCI-H2126,0.685,0.775,0.696,0.797,0.743,0.736,0.801,0.856,0.856,0.754,1,1.03,0.992,1.09,0.962,0.745,0.725,0.655,0.739,0.76
EMC-BAC-2,0.371,0.371,0.425,0.381,0.33,0.196,0.286,0.287,0.283,0.237,0.878,–,1.22,1.11,1,0.746,0.74,0.682,0.739,0.783
NCI-H838,–,0.361,0.41,0.395,0.398,–,0.267,0.293,0.274,0.267,0.694,0.981,0.949,0.967,0.909,0.843,1.08,0.935,1,0.971
NCI-H322M,–,0.529,0.555,0.397,0.487,–,0.497,0.525,0.485,0.439,–,–,0.579,0.668,0.491,0.719,0.78,0.7,0.772,0.763
HCC-15,0.625,0.715,0.672,0.742,0.529,0.208,0.515,0.391,0.327,0.318,1.3,1.19,1.23,1.58,1.1,0.905,0.863,0.839,0.902,0.842
NCI-H1395,0.562,0.579,0.628,0.667,0.549,0.673,0.817,0.761,0.781,0.565,–,0.394,0.382,0.398,0.397,1.37,0.873,1.09,0.74,–
NCI-H596,0.79,0.779,0.768,0.721,0.598,1.05,0.823,0.872,0.938,0.743,1.12,1.18,1.07,1.19,0.937,0.497,0.541,0.472,0.526,0.516
